According to patent US12498382B2, “Biomarkers for vitiligo” (INCYTE CORPORATION, priority 2019, dated 2025):

Tested on: HaCaT cells
Test: Concentrations of inflammatory mediators produced by HaCaT cells stimulated with TNFα and IFNγ in presence/absence of JAK inhibitors (ProCarta)
Assay type: cell-based, human
Protocol: After 48 hours, cell culture media was removed from 24 well plates and replaced with 250 uL of media containing serial diluted drug, then incubated for 15 minutes at 37° C./5% CO2. […] The final concentration of Recombinant Human Interferon gamma and Recombinant Human Tumor Necrosis Factor alpha was 25 ng/mL of each cytokine. Cytokine stimulation added to wells containing drug brought the final concentrations for each drug treatment to 25 nM, 50 nM, 100 nM, and 200 nM. Treated plates were mixed by gentle agitation for 30 seconds then incubated for 24 hours at 37° C./5% CO2. At the end of the 24 hour incubation media was immediately removed from each plate.
Media was incubated with antibody conjugated beads designed to bind to the epitopes of specific target proteins and identify the bound protein through the bead's distinctive spectral pattern. Biotinylated detection antibodies, designed to bind to different epitopes of the same target proteins, and Streptavidin-PE are added to assay plates to quantify the amount of the target proteins. Assay plates were read on the Luminex 200 and data were expressed as Net Median Fluorescence Intensity. […] The concentration of each protein was extrapolated from the antigen standard curve and concentrations were expressed as pg/mL (Table 15).

[1] = TNFα 25 ng/mL + IFNγ 25 ng/mL, drug 25 nM
[2] = TNFα 25 ng/mL + IFNγ 25 ng/mL, drug 50 nM
[3] = TNFα 25 ng/mL + IFNγ 25 ng/mL, drug 100 nM
[4] = TNFα 25 ng/mL + IFNγ 25 ng/mL, drug 200 nM

CC(O)c1nc2cnc3ccsc3c2n1C1CCC(CC#N)OC1 (stereo not shown) [Cpc D]
BDNF concentration [1]: 4.08 ± 0.26 pg/mL
EGF concentration [1]: 1.49 ± 0.14 pg/mL
Eotaxin concentration [1]: 9.82 ± 0.2 pg/mL
FGF-2 concentration [1]: 22.89 ± 1.39 pg/mL
GM-CSF concentration [1]: 126.24 ± 3.53 pg/mL
GRO alpha concentration [1]: 539.42 ± 38.03 pg/mL
HGF concentration [1]: 13.47 ± 0.45 pg/mL
IFN alpha concentration [1]: 0.26 ± 0.01 pg/mL
bNGF concentration [1]: 7.44 ± 0.63 pg/mL
BDNF concentration [2]: 3.97 ± 0.25 pg/mL
EGF concentration [2]: 1.31 ± 0.19 pg/mL
Eotaxin concentration [2]: 9.58 ± 0.21 pg/mL
FGF-2 concentration [2]: 20.96 ± 1.43 pg/mL
GM-CSF concentration [2]: 124.89 ± 3.37 pg/mL
GRO alpha concentration [2]: 555.54 ± 44.74 pg/mL
HGF concentration [2]: 13.27 ± 0.45 pg/mL
IFN alpha concentration [2]: 0.26 ± 0 pg/mL
bNGF concentration [2]: 6.17 ± 0.74 pg/mL
BDNF concentration [3]: 4.18 ± 0.28 pg/mL
EGF concentration [3]: 1.23 ± 0.16 pg/mL
Eotaxin concentration [3]: 10.02 ± 0.19 pg/mL
FGF-2 concentration [3]: 21.77 ± 1.51 pg/mL
GM-CSF concentration [3]: 133.19 ± 3.97 pg/mL
GRO alpha concentration [3]: 578.28 ± 48.32 pg/mL
HGF concentration [3]: 13.75 ± 0.4 pg/mL
IFN alpha concentration [3]: 0.26 ± 0 pg/mL
bNGF concentration [3]: 7.12 ± 0.8 pg/mL
BDNF concentration [4]: 4.03 ± 0.28 pg/mL
EGF concentration [4]: 1.45 ± 0.17 pg/mL
Eotaxin concentration [4]: 9.85 ± 0.17 pg/mL
FGF-2 concentration [4]: 20.96 ± 1.34 pg/mL
GM-CSF concentration [4]: 130.42 ± 3.44 pg/mL
GRO alpha concentration [4]: 564.53 ± 52.35 pg/mL
HGF concentration [4]: 13.8 ± 0.48 pg/mL
IFN alpha concentration [4]: 0.25 ± 0.02 pg/mL
bNGF concentration [4]: 6.73 ± 0.61 pg/mL
BDNF concentration (no stimulation, drug 200 nM): 5.66 ± 0.38 pg/mL
EGF concentration (no stimulation, drug 200 nM): 1.24 ± 0.09 pg/mL
Eotaxin concentration (no stimulation, drug 200 nM): 2.08 ± 0.07 pg/mL
FGF-2 concentration (no stimulation, drug 200 nM): 8.19 ± 1.07 pg/mL
GM-CSF concentration (no stimulation, drug 200 nM): 8.49 ± 1.84 pg/mL
GRO alpha concentration (no stimulation, drug 200 nM): 234.42 ± 14.21 pg/mL
HGF concentration (no stimulation, drug 200 nM): 3.68 ± 0.39 pg/mL
IFN alpha concentration (no stimulation, drug 200 nM): 0.22 ± 0.03 pg/mL
IFN gamma concentration (no stimulation, drug 200 nM): 4.52 ± 0.68 pg/mL
bNGF concentration (no stimulation, drug 200 nM): 3.47 ± 0.48 pg/mL
